Measurements published in PubChem BioAssay AID449725 (University of Pittsburgh Molecular Library Screening Center, 2010).
The source made the active and inactive calls. No rule for the calls is given here.

Tested on: IMR-90 human lung fibroblast viability counter screen
Test: cytotoxicity in human IMR-90 lung fibroblasts – cell-based, IC50, cytotoxicity control, dose response (AID 449725);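 also: 48 hour compound exposure before the viability read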

Row | SMILES | IC50
1 | Cc1ccc(C(=O)Nc2cc(Cl)ccc2C(=O)O)cc1C | > 25 µM (inactive)
2 | COc1ccc(C(=O)NCC(=O)O)cc1 | > 25 µM (inactive)
3 | Cc1ccc(C(=O)Nc2cc(Cl)ccc2C(=O)O)cc1 | > 25 µM (inactive)
4 | C=C(C)c1ccc(C(=O)Nc2cc(Cl)ccc2C(=O)O)cc1 | > 25 µM (inactive)
5 | O=c1c2ccccc2sn1-c1cccc(F)c1 | 7.9 µM
6 | COc1ccc(C(=O)Nc2cc(C(F)(F)F)ccc2C(=O)O)cc1 | > 25 µM (inactive)
7 | O=C(Nc1cc(Cl)ccc1C(=O)O)c1ccc(C2CCC2)cc1 | > 25 µM (inactive)
8 | COc1ccc(C(=O)NC(CC(=O)O)c2ccccc2)cc1 (configuration not stated) | > 25 µM (inactive)
9 | COc1ccc(C(=O)Nc2cc(Cl)ccc2-c2nn[nH]n2)cc1 | > 25 µM (inactive)
10 | CCc1ccc(C(=O)Nc2cc(Br)ccc2C(=O)O)cc1 | > 25 µM (inactive)
11 | COc1ccc(C(=O)NC(CC(=O)O)c2cccc(Cl)c2)cc1 (configuration not stated) | > 25 µM (inactive)
12 | COc1ccc(C(=O)Nc2cc(Cl)ccc2C(N)=O)cc1 | > 25 µM (inactive)
13 | COc1ccc(C(=O)Nc2c(C(=O)O)ccc(Cl)c2Cl)cc1 | > 25 µM (inactive)
14 | O=C(NCc1ccccc1)n1sc2ccccc2c1=O | > 25 µM (inactive)
15 | CN(C)c1ccc(C(=O)Nc2cc(Cl)ccc2C(=O)O)cc1 | > 25 µM (inactive)
16 | O=c1c(Br)csn1-c1ccc(Br)cc1 | > 25 µM (inactive)
17 | O=c1c2cc([N+](=O)[O-])ccc2sn1-c1ccccc1 | 10.2 µM
18 | O=C(Cn1sc2ccccc2c1=O)Nc1ccc(F)cc1 | 6.87 µM
19 | O=C(Cn1sc2ccccc2c1=O)NCc1ccccc1 | 6.37 µM
20 | CC(C)Cc1ccc(C(=O)Nc2cc(Cl)ccc2C(=O)O)cc1 | > 25 µM (inactive)
21 | O=C(Cn1sc2ccccc2c1=O)Nc1cccc(C(F)(F)F)c1 | > 25 µM (inactive)
22 | CC(C)(C)c1ccc(C(=O)Nc2cc(Cl)c(Br)cc2C(=O)O)cc1 | > 25 µM (inactive)
23 | COc1cccc(CC(=O)Nc2cc(Cl)ccc2C(=O)O)c1 | > 25 µM (inactive)
24 | Cc1ccccc1N1Cc2ccccc2C1=O | > 25 µM (inactive)

Row | SMILES | IC50
25 | COc1ccc(C(=O)NC(CC(=O)O)c2ccc(Cl)cc2)cc1 (configuration not stated) | > 25 µM (inactive)
26 | CC(C)(C)c1ccc(C(=O)Nc2cc(Cl)ccc2-c2nn[nH]n2)cc1 | > 25 µM (inactive)
27 | CCCCCC(=O)Nc1cc(Cl)ccc1C(=O)O | > 25 µM (inactive)
28 | CN(Cc1ccccc1)C(=O)Cn1sc2ccccc2c1=O | 15.2 µM
29 | Cc1ccc(C(=O)Nc2cc(Cl)ccc2C(=O)O)c(C)c1 | > 25 µM (inactive)
30 | COc1ccc2c(c1)CN(c1cc(Cl)ccc1C(=O)O)C2=O | > 25 µM (inactive)
31 | COc1ccc(NC(=O)Cn2sc3ccccc3c2=O)cc1 | 6.49 µM
32 | COc1ccc(C(=O)Nc2cc(Cl)ccc2C#N)cc1 | > 25 µM (inactive)
33 | CC(C)(C)c1ccc(C(=O)Nc2cc(Cl)c(Cl)cc2C(=O)O)cc1 | > 25 µM (inactive)
34 | O=C1CCN(C(=O)Nc2cc(Cl)ccc2C(=O)O)CC1 | > 25 µM (inactive)
35 | COc1ccc(C(=O)Nc2cc(Cl)ccc2C(=O)O)cc1OC | > 25 µM (inactive)
36 | Cc1ccc(NC(=O)Cn2sc3ccccc3c2=O)cc1 | 11 µM
37 | O=C(Nc1cc(Cl)ccc1C(=O)O)c1ccccc1 | > 25 µM (inactive)
38 | O=c1c2ccccc2sn1-c1cccc(Cl)c1 | > 25 µM (inactive)
39 | COc1cccc(-n2sc3ccccc3c2=O)c1 | 6.34 µM
40 | O=C(Nc1ccccc1)c1cc(F)ccc1S | > 25 µM (inactive)
41 | O=c1c2ccc(F)cc2sn1-c1ccccc1 | 7.17 µM
42 | COc1ccc(NC(=O)c2ccc(Cl)cc2C(=O)O)cc1 | > 25 µM (inactive)
43 | O=C(Cn1sc2ccccc2c1=O)NC1CCCCC1 | 12.8 µM
44 | COc1ccc2c(=O)n(-c3ccccc3)sc2c1 | > 25 µM (inactive)
45 | CC(C)(C)c1ccc(C(=O)Nc2c(C(=O)O)ccc(Cl)c2Cl)cc1 | > 25 µM (inactive)
46 | COc1cccc(NC(=O)Cn2sc3ccccc3c2=O)c1 | 8.77 µM
47 | CC1(c2ccc(C(=O)Nc3cc(Cl)ccc3C(=O)O)cc2)CC1 | > 25 µM (inactive)
48 | COc1ccc(C(=O)Nc2cc(F)cc(F)c2O)cc1 | > 25 µM (inactive)

Row | SMILES | IC50
49 | O=C(Nc1cc(Cl)ccc1C(=O)O)c1ccc(I)cc1 | > 25 µM (inactive)
50 | Cc1ccc(-n2sc3cc(F)ccc3c2=O)c(C)c1 | 6.4 µM
51 | COC(=O)c1ccc(Cl)cc1NC(=O)c1ccccc1OC | > 25 µM (inactive)
52 | N#Cc1ccc2sn(-c3ccccc3)c(=O)c2c1 | > 25 µM (inactive)
53 | COc1ccc(Nc2cc(Cl)ccc2C(=O)O)cc1 | > 25 µM (inactive)
54 | O=C(Nc1cc(Cl)ccc1C(=O)O)c1ccc2c(c1)CCCC2 | > 25 µM (inactive)
55 | COc1ccc(CC(=O)Nc2cc(Cl)ccc2C(=O)O)cc1 | > 25 µM (inactive)
56 | Cc1ccccc1-n1sc2cc(F)ccc2c1=O | 5.6 µM
57 | O=C(Nc1cc(Cl)ccc1C(=O)O)c1ccc(C(F)(F)F)cc1 | > 25 µM (inactive)
58 | O=c1c2ccc([N+](=O)[O-])cc2sn1-c1ccccc1 | 20.7 µM
59 | O=C(Cn1sc2ccccc2c1=O)Nc1ccc(Br)cc1 | > 25 µM (inactive)
60 | O=C(Nc1cc(Cl)ccc1C(=O)O)c1ccoc1 | > 25 µM (inactive)
61 | O=c1c2ccccc2on1-c1ccccc1 | > 25 µM (inactive)
62 | O=C(CCn1sc2ccccc2c1=O)Nc1ccccc1 | 9.92 µM
63 | COc1ccc(C(=O)Nc2cc(C)ccc2C(=O)O)cc1 | > 25 µM (inactive)
64 | O=c1c2cc(Br)ccc2sn1-c1ccccc1 | > 25 µM (inactive)
65 | COc1ccc(C(=O)N2CCC(=O)c3ccc(Cl)cc32)cc1 | > 25 µM (inactive)
66 | COc1ccccc1NC(=O)Cn1sc2ccccc2c1=O | 12.3 µM
67 | Cc1ccccc1NC(=O)Cn1sc2ccccc2c1=O | 7.37 µM
68 | CC(=O)Nc1cc(Cl)ccc1C(=O)O | > 25 µM (inactive)
69 | O=c1c2ccccc2sn1-c1ccccc1F | 5.4 µM
70 | O=c1c2cc(C(F)(F)F)ccc2sn1-c1ccccc1 | 12 µM
71 | Cc1cc(=O)n(-c2ccccc2)s1 | 9.14 µM
72 | O=C(Cn1sc2ccccc2c1=O)Nc1ccccc1 | 6.93 µM

Row | SMILES | IC50
73 | COc1ccc(C(=O)Nc2cc(Br)ccc2C(=O)O)cc1 | > 25 µM (inactive)
74 | O=C(Cn1sc2ccccc2c1=O)N1CCCCC1 | 16.5 µM
75 | COc1ccc(C(=O)Nc2cc(Cl)ccc2C(=O)O)cc1 | > 25 µM (inactive)
76 | CCC(C)(C)c1ccc(C(=O)Nc2cc(Cl)ccc2C(=O)O)cc1 | > 25 µM (inactive)
77 | CC(=O)Nc1ccc2c(=O)n(-c3ccccc3)sc2c1 | > 25 µM (inactive)
78 | Cc1ccc(-n2sc3ccccc3c2=O)cc1 | 18.3 µM
79 | COc1ccc(C(=O)Nc2cc(F)ccc2C(=O)O)cc1 | > 25 µM (inactive)
80 | O=c1c2cc(F)ccc2sn1-c1ccccc1 | > 25 µM (inactive)
81 | CC(C)c1cccc(C(=O)Nc2cc(Cl)ccc2C(=O)O)c1 | > 25 µM (inactive)
82 | O=C(Nc1cc(Cl)ccc1C(=O)O)c1ccncc1 | > 25 µM (inactive)
83 | O=C(Cn1sc2ccccc2c1=O)Nc1ccccc1Cl | > 25 µM (inactive)
84 | COc1ccc(C(=O)Nc2cccc(Cl)c2)cc1 | > 25 µM (inactive)
85 | COc1ccc(S(=O)(=O)Nc2cc(Cl)ccc2C(=O)O)cc1 | > 25 µM (inactive)
86 | CC(C)(C)c1ccc(C(=O)Nc2cc(Cl)ccc2C(=O)O)cc1 | > 25 µM (inactive)
87 | COc1cccc(C(=O)Nc2cc(Cl)ccc2C(=O)O)c1 | > 25 µM (inactive)
88 | N#Cc1ccccc1NC(=O)Cn1sc2ccccc2c1=O | > 25 µM (inactive)
89 | COc1ccc(C(=O)Nc2cc(Cl)c(Br)cc2C(=O)O)cc1 | > 25 µM (inactive)
90 | CCCCCCCC(=O)Nc1cc(Cl)ccc1C(=O)O | > 25 µM (inactive)
91 | COc1ccc(C(=O)Nc2cc(I)ccc2C(=O)O)cc1 | > 25 µM (inactive)
92 | O=C1c2cccc(Br)c2SCN1c1ccccc1 | > 25 µM (inactive)
93 | COc1ccc(C(=O)Nc2ccc(Cl)cc2C(=O)O)cc1 | > 25 µM (inactive)
94 | COc1ccc(C(=O)Nc2cc(Cl)ccc2-c2noc(=O)[nH]2)cc1 | > 25 µM (inactive)
95 | O=C(Nc1cc(Cl)ccc1C(=O)O)c1ccc2ccccc2c1 | > 25 µM (inactive)
96 | O=c1c2cc(F)ccc2sn1-c1ccc(Cl)cc1 | > 25 µM (inactive)

Row | SMILES | IC50
97 | COc1ccc(C(=O)Nc2cc(Cl)c(C)cc2C(=O)O)cc1 | > 25 µM (inactive)
98 | CC(C)(C)c1ccc(C(=O)Nc2cc(Cl)c(F)cc2C(=O)O)cc1 | > 25 µM (inactive)
99 | O=C(Nc1cc(Cl)ccc1C(=O)O)c1cocn1 | > 25 µM (inactive)
100 | O=C(Nc1cc(Cl)ccc1C(=O)O)c1ccc(Cl)cc1 | > 25 µM (inactive)
101 | O=c1c2ccccc2sn1-c1ccc(Cl)cc1Cl | > 25 µM (inactive)
102 | COc1ccc(C(=O)N(C)c2cc(Cl)ccc2C(=O)O)cc1 | > 25 µM (inactive)
103 | COc1ccc(C(=O)Nc2cc(Cl)ccc2[N+](=O)[O-])cc1 | > 25 µM (inactive)
104 | O=c1c2c(Br)cccc2sn1-c1ccccc1 | > 25 µM (inactive)
105 | O=C(Nc1cc(Cl)ccc1C(=O)O)c1ccc(C2CC2)cc1 | > 25 µM (inactive)
106 | O=C(O)c1ccc(Cl)cc1NC(=O)N1CCOCC1 | > 25 µM (inactive)
107 | N#Cc1ccc(NC(=O)Cn2sc3ccccc3c2=O)cc1 | 19.7 µM
108 | COc1cc(C(=O)Nc2cc(Cl)ccc2C(=O)O)cc(OC)c1OC | > 25 µM (inactive)
109 | O=c1c2ccc(Br)cc2sn1-c1ccccc1 | > 25 µM (inactive)
110 | COc1ccc(C(=O)O)c(NC(=O)c2ccc(Cl)cc2)c1 | > 25 µM (inactive)
111 | O=c1c2ccccc2sn1-c1ccccc1Cl | 4.81 µM
112 | Cc1cc(C(C#N)c2ccc(Cl)cc2)c(Cl)cc1NC(=O)c1cc(I)cc(I)c1O (configuration not stated) | > 25 µM (inactive)
113 | O=c1ccsn1-c1ccccc1 | 5.79 µM
114 | O=C(Nc1cc(Cl)ccc1C(=O)O)c1ccsc1 | > 25 µM (inactive)
115 | COc1ccc2sn(-c3ccccc3)c(=O)c2c1 | > 25 µM (inactive)
116 | Cn1sc(=O)c2ccccc21 | 18 µM
117 | COC(=O)c1ccc(Cl)cc1NC(=O)c1ccc(Cl)cc1 | > 25 µM (inactive)
